Measurements as given in patent US20090281278A1, “MODIFIED MOLECULES WHICH PROMOTE HEMATOPOIESIS” (priority 2006, published 2009).
“Also recorded” adds a separate entry of the source. Bridges are numbered along the chain shown (N, C = ends). Where no end group is shown, it is not given here. [ ]: non-standard residue; d: D form. 1Nal = N[C@@H](Cc1cccc2ccccc12)C(=O)O

Tested on: TF-1 cells
Test: TF-1 proliferation assay (MTT/MTS, number of viable cells)
Format: cell-based, human
Conditions: for efficacy and potency (EPO mimetic activity) compared with reference peptides: TF-1 proliferation, normalized plots
Experimental: An experiment was performed in a standard TF-1 cell assay as recommended by the European Pharmacopoe for the determination of EPO-like activity in vitro (please also see below). Basically, TF-1 cells (their proliferation being dependent from the presence of EPO-like activity) are cultured in the presence various concentrations of EPO or EPO-mimetic substances. The resulting cell numbers are quantified using colorimetric MTT-assay and photometric measurements.
TF1 cells in logarithmic growth phase (2×10^5-1×10^6 cells/ml grown in RPMI with 20% fetal calf serum (FCS) and 0.5 ng/ml IL-3) were counted, and the number of cells needed to perform an assay were centrifuged (5 min. 1500 rpm) and resuspended in RPMI with 5% FCS without IL-3 at 300 000 cells/ml. Cells were precultured in this (starvation) medium without IL-3 for 48 hours. Before starting the assay the cells were counted again.
Shortly before starting the assay stock solutions of peptides and EPO were prepared. Peptides were weighed and dissolved in RPMI with 5% FCS up to a concentration of 1 mM, 467 μM or 200 μM. EPO stock solutions were 10 nM or 20 nM. 292 μl of these stock solutions were pipetted into one well of a 96 well culture plate—one plate was taken for each substance to be tested. Two hundred μl of RPMI with 5% FCS were pipetted into seventeen other wells in each plate. Ninety-two μl of stock solution were pipetted into a well containing 200 μl medium. The contents were mixed, and 92 μl from this well was transferred to the next, and so forth. This way a dilution series (18 dilutions) of each substance was prepared such that in each consecutive well the concentration was 1:√10 of the concentration in the well before that. From each well 3×50 μl was transferred to three empty wells. This way each concentration of substance was measured in quadruplicate. Note that the uppermost and lowermost line of wells of each plate was left void.
Pre-treated (starved) cells were centrifuged (5 min. 1500 rpm) and resuspended in RPMI with 5% FCS at a concentration of 200 000 cells per ml. […]
To measure the number of live cells per well, ready-to-use […] (Promega, CellTiter 96 Aqueous One Solution Cell Proliferation Assay) was thawed in a 37° C. water bath. […] Twenty-five μl of a 10% SDS solution was added, and plates were measured in an ELISA reader (Genios, Tecan). […]
For optimal results TF-1 cells should be cultured for two days in the absence of any cytokine (starved) before starting the assay. Three days after starting the assay, cell proliferation is measured indirectly by assaying the number of viable cells.
A tetrazolium reagent, called MTS, is added which is reduced to coloured formazan. […] The amount of formazan is measured spectrophotometrically. […]

GGTYSCHFGPLTWVCKPQGG [EMP1, reference compound]
agonist behaviour (maximal response compared with EPO) (peptides in their monomeric form): partial agonists

AGEM40—HES: peptide (AGEM40) HESylated according to the supravalence principle (Ac-CGGTYSCHFGKLT[1Nal]VCKKQRGGGTYSCHFGKLT[1Nal]VCKKQRG-NH2; disulfide 7-16, 27-36 (inferred); not fully specified (residue 1); also: HES (hydroxyethyl starch) conjugate, maleimide-linked)
efficacy and potency (EPO mimetic activity) compared with reference peptides: highly effective and potent

Ac-GGTYSCHFGKLTWVCKKQGG (cysteine pairing not given here) [BB49]
efficacy and potency (EPO mimetic activity) compared with reference peptides: efficacy and potency in the same range as EMP1

Ac-GGTYSCHFGKLT-Na1-VCKKQRG-Am (Ac-GGTYSCHFGKLT[1Nal]VCKKQRG-NH2; cysteine pairing not given here) [BB68]
efficacy and potency (EPO mimetic activity) compared with reference peptides: even more effective than EMP1 and BB49; also recorded: improved effect
